In ChEMBL document CHEMBL1128363, “Design, synthesis, biology, and conformations of bicyclic alpha-melanotropin analogues” (J Med Chem, 1995) one finds Potency and EC50 data, which are given here for twelve molecules.

What all share (assay type): functional
Assay [1] concerns frog. In words: Potency of compound was measured in frog.
The nature of assay [2]: Activity expressed as EC50 was measured in frog.
The test system of assay [3] is frog. In words: Potency measured in frog where (-) indicates peptide is not long acting.
Assay [4] concerns lizard. The experiment in a line: Potency of compound was measured in lizard where (-) indicates peptide is not prolonged acting.
A short description of assay [5]: Activity expressed as EC50 was measured in lizard.
The test system of assay [6] is frog. In words: Potency of compound was measured in frog; Inactive.
The nature of assay [7]: Activity of compound expressed as EC50 was measured in frog; Inactive.
Assay [8] deals with lizard. In words: Potency of compound was measured in lizard; Inactive.
The nature of assay [9]: Activity of compound expressed as EC50 was measured in lizard; Inactive.
For assay [10], the system named is frog. In words: Potency measured in frog where (+) indicates peptide is long acting.
Assay [11] has as its system lizard. In words: Potency measured in lizard where (+) indicates peptide is long acting and (-) indicates peptide is not long acting.
For assay [12], the system named is frog. The experiment in a line: Potency of compound was measured in frog where (+) indicates peptide is prolonged acting and (-) indicates peptide is not prolonged acting.
For assay [13], the system named is lizard. The experiment in a line: Potency of compound was measured in lizard where (+) indicates peptide is prolonged acting.

pEC50: −log10 of the molar value. The source made the active and inactive calls. No cut-off for these calls is given here. Where a SMILES comes first, the peptide text is derived from it. [ ]: non-standard residue; d: D form.

`CCCC[C@H](NC(C)=O)C(=O)N[C@@H]1CC(=O)NCCCC[C@H](C(N)=O)NC(=O)C(C)(C)NC(=O)[C@@H](Cc2c[nH]c3ccccc23)NC(=O)[C@H](CCCN=C(N)N)NC(=O)[C@@H](Cc2ccccc2)NC(=O)[C@@H](Cc2c[nH]cn2)NC1=O` came in with a Potency in the assay with frog [1] of 1. Besides, the negative logarithm of the EC50 (pEC50) in [2] is 10.00.
As for `CC(=O)N[C@@H]1CSSC[C@H](C(=O)N[C@H](CCCCN)C(N)=O)NC(=O)[C@@H](Cc2c[nH]c3ccccc23)NC(=O)[C@H](CCCN=C(N)N)NC(=O)C(Cc2ccccc2)NC(=O)[C@H](Cc2c[nH]cn2)NC(=O)[C@@H](CCC(=O)O)NC1=O` (stereo in doubt), the Potency with frog [3] turned out to be 2.5; in the assay with lizard [4], 3. Moreover, the pEC50 in [2] was 10.40; in assay [5], 9.52.
On to `CC(=O)N[C@@H](Cc1c[nH]cn1)C(=O)N[C@@H](Cc1ccccc1)C(=O)N[C@@H](CCCN=C(N)N)C(=O)N[C@@H](Cc1c[nH]c2ccccc12)C(N)=O`, for which the Potency in the assay with frog [3] worked out at 5e-06; in the assay with lizard [4] it was 0.0014. Further, the negative-log EC50 (pEC50) is 4.52 in assay [2] and 4.82 in [5].
In turn, `N=C(N)NCCC[C@H]1NC(=O)[C@@H](Cc2ccccc2)NC(=O)[C@@H](Cc2c[nH]cn2)NC(=O)CNC(=O)CNC(=O)[C@H](Cc2c[nH]c3ccccc23)NC1=O` had a negative logarithm of the EC50 (pEC50) in assay [2] of 5.92.
For `CC(=O)N[C@@H](Cc1c[nH]cn1)C(=O)N[C@H](Cc1ccccc1)C(=O)N[C@@H](CCCN=C(N)N)C(N)=O`, the Potency result with frog [6] and in the assay on lizard [8] was “inactive” in each case. For the same molecule, the EC50 entry in assay [7] and in [9] was “Not Active” throughout.
Take `CC(=O)N[C@@H]1CSSC[C@H]2NC(=O)[C@@H](Cc3c[nH]c4ccccc34)NC(=O)[C@H](CCCN=C(N)N)NC(=O)C(Cc3ccccc3)NC(=O)[C@H](Cc3c[nH]cn3)NC(=O)[C@@H](CC(=O)NCCCC[C@H](C(=O)N3CCC[C@@H]3C(=O)N[C@H](C(N)=O)C(C)C)NC2=O)NC1=O` (stereo in doubt): the figures for the Potency in the assay on frog [10] and with lizard [11] were 0.04 and 0.03, respectively. Further, the pEC50 was 8.60 in [2] and 7.48 in assay [5].
`CC(=O)N[C@@H](Cc1cnc[nH]1)C(=O)N[C@H](Cc1ccccc1)C(=O)N[C@@H](CCCNC(=N)N)C(=O)N[C@@H](Cc1c[nH]c2ccccc12)C(N)=O`: the Potency with frog [3] was 0.001; in the assay with lizard [4] it was 0.1. For the same molecule, the pEC50 in [2] is 6.82; in [5], 8.00.
As for `CC(=O)N[C@@H]1CSSC[C@H]2NC(=O)[C@@H](Cc3c[nH]c4ccccc34)NC(=O)[C@H](CCCN=C(N)N)NC(=O)[C@H](Cc3ccccc3)NC(=O)[C@H](Cc3c[nH]cn3)NC(=O)[C@@H](CC(=O)NCCCC[C@@H](C(N)=O)NC2=O)NC1=O`, the Potency in the assay with frog [12] turned out to be 0.018; in the assay on lizard [11], 0.03. The pEC50 in [2] was 8.22; in assay [5] it was 7.48.
As for `CC(=O)N[C@@H]1CSSC[C@H]2NC(=O)[C@@H](Cc3c[nH]c4ccccc34)NC(=O)[C@H](CCCN=C(N)N)NC(=O)[C@H](Cc3ccccc3)NC(=O)[C@H](Cc3c[nH]cn3)NC(=O)[C@@H](CCC(=O)NCCCC[C@@H](C(N)=O)NC2=O)NC1=O`, the Potency in the assay with frog [3] is 0.0035; in the assay with lizard [11], 0.0025. For the same molecule, the pEC50 in [2] is 7.55; in [5], 6.40.
As to `CC(=O)N[C@@H]1CSSC[C@@H](C(N)=O)NC(=O)[C@@H]2CCCCNC(=O)C[C@@H](NC1=O)C(=O)N[C@@H](Cc1c[nH]cn1)C(=O)N[C@H](Cc1ccccc1)C(=O)N[C@@H](CCCN=C(N)N)C(=O)N[C@H](Cc1c[nH]c3ccccc13)C(=O)N2`, the values for the Potency with frog [10] and in the assay on lizard [11] were 0.003 and 0.03, respectively. The negative-log EC50 (pEC50) in assay [2] and in assay [5] was 7.48 in each case.
With `CCCC[C@H](NC(C)=O)C(=O)NC1CCCNC(=O)CC[C@H](C(=O)N[C@@H](Cc2c[nH]c3ccccc23)C(=O)NCC(=O)N[C@@H](CCCCN)C(N)=O)NC(=O)[C@@H](Cc2ccccc2)NC(=O)[C@@H](Cc2c[nH]cn2)NC1=O` (stereo in doubt), the Potency in the assay with frog [3] was 0.001. Also, the negative logarithm of the EC50 (pEC50) in assay [2] was 6.00. For the same molecule, in the assay on lizard [8], the Potency result is “inactive”.
Turning to `CC(=O)N[C@H](Cc1ccccc1)C(=O)N[C@@H](CCCN=C(N)N)C(=O)N[C@@H](Cc1c[nH]c2ccccc12)C(N)=O` (Ac-[dF]-Arg-Trp-NH2), the values for the Potency with frog [10] and with lizard [13] were 1e-05 and 0.001, respectively. For the same molecule, the pEC50 in assay [2] is 5.00; in assay [5] it was 6.00.

For orientation: pEC50 means the EC50 on a negative log10 scale, so that one unit is a factor of ten.
